Data published in article PMC10669656, “ADMET and Solubility Analysis of New 5-Nitroisatine-Based Inhibitors of CDK2 Enzymes” (Biomedicines, 2023).

Assay: PARIS III toxicological and environmental analysis of solvents (HTPI, EI)
Parameters: species or system human
Details: binary solvent with water
From the text: The examined chemical compounds are 2-trifluoromethyl-N′-[5-nitro-2-oxo-1,2-dihydro-3H-indol-3-ylidene]benzohydrazide (1), 3-Amino-N′-[5-nitro-2-oxo-1,2-dihydro-3H-indol-3-ylidene]benzohydrazide (2), and 3-nitro-N′-[5-nitro-2-oxo-1,2-dihydro-3H-indol-3-ylidene]benzohydrazide (3). The evaluation of the descriptors defining molecular properties, absorption, metabolism, and toxicity of considered drugs was estimated with the use of ADMETlab 2.0 [9]. The quantitative structure–activity relationship (QSAR) algorithms implemented in used software based on the chemical structures of considered drugs described by SMILES definitions are presented in Figure 1. The method of interpretation and definitions of particular descriptors obtained during the analysis are included in the Results and Discussion sections. The toxicological analysis of solvents was realized with the use of the Solvent Substitution Software Tool, PARIS III [40, 41]. The characteristics of the Human Toxicity Potential by Ingestion (HTPI) of individual solvents and sets of binary solvents analyzed in this work were obtained based on the values of LD50 for particular solvents.
Additionally, the values of the Environmental Index (EI) were also estimated based on a set of eight environmental impact scores, which included, among others, HTPI, terrestrial toxicity potential, and aquatic toxicity potential. In the case of Equation (2), the σj is the weight for considered impact j, the φi,j stands for the value of normalized impact for considered solvent. (2) EIi=∑j=18σjφi,j¯

SMILES | % HTPI x1.0 (relative to the pure organic solvent) (x* 0.1) | % HTPI x1.0 (relative to the pure organic solvent) (x* 0.2) | % HTPI x1.0 (relative to the pure organic solvent) (x* 0.3) | % HTPI x1.0 (relative to the pure organic solvent) (x* 0.4) | % HTPI x1.0 (relative to the pure organic solvent) (x* 0.5) | % HTPI x1.0 (relative to the pure organic solvent) (x* 0.6) | % HTPI x1.0 (relative to the pure organic solvent) (x* 0.7) | % HTPI x1.0 (relative to the pure organic solvent) (x* 0.8) | % HTPI x1.0 (relative to the pure organic solvent) (x* 0.9) | % HTPI x1.0 (relative to the pure organic solvent) (x* 1.0)
C[S+](C)[O-] [DMSO, dimethyl sulfoxide] | 37.7% | 55.8% | 67.8% | 76.4% | 83.1% | 87.7% | 91.5% | 95.4% | 97.7% | 100.0%
CN1CCCC1=O [NMP, N-methyl-2-pyrrolidone] | 39.1% | 58.8% | 70.8% | 79.1% | 84.9% | 89.4% | 93.0% | 95.9% | 98.1% | 100.0%
